From patent US7354991B2, “Peptides for the diagnosis of schizophrenia” (Yeda Research and Development Co. Ltd, priority 2001, dated 2008)

What was measured:
[1] = system: autoantibodies in plasma samples from schizophrenic patients; experiment: Enzyme immunoassay: binding of biotin-labeled peptide on streptavidine coated tubes to plasma of schizophrenic patients; parameters: species or system human; details: 39 schizophrenic patients; FIG. 3
Protocol: (§1) • 1. Patients and control persons—Thirty-nine schizophrenic patients participated in this study. The following parameters were recorded: gender, age, duration of schizophrenia, number of hospitalizations, years of education and the psychiatric status (PANSS). Fifty plasma samples were obtained from a local blood bank. • 2. Plasma—Venous blood was drawn with heparin as […] from patients and control subjects. Plasma was obtained after centrifugation (4000 g; 15 mins. 4° C.). • 3. Peptide synthesis and biotin labeling—The peptides were synthesized on an Abimed 522 at a 10 micromol scale by Eurosequence b.v., (Nijenborgh 4: 9747 AG Groningen; The Netherlands) and labeled at the amino terminal with biotin containing a six carbon spacer. Peptide purity was routinely assessed by RP-HPLC and, when considered necessary, by laser desorption mass spectroscopy. The peptides were routinely dissolved in 1 ml water/DMF/DMSO (1:1:1; v/v/v). • 4. […] The absorbence was read at 450 nm spectrophotometrically. […]
(§2) Therefore, an experiment was carried out with the biotin-LVVGLCK as follows: the peptide was biotin-labeled and coated onto streptavidine coated tubes as explained above. Plasma samples of 39 schizophrenic patients and 50 control non schizophrenic individuals were tested with the coated peptide and the level of binding was determined by the enzyme immunoassay described above.

[2] = system: plasma samples from non schizophrenic individuals; experiment: Enzyme immunoassay: binding of biotin-labeled peptide on streptavidine coated tubes to control plasma; parameters: species or system human; details: 50 control individuals; FIG. 3
Protocol: as §1, §2

## LVVGLCK
[1]
  level of binding, mean value and standard deviation, plasma of schizophrenic patients: 1.47±0.65 O.D.
[2]
  level of binding, mean value and standard deviation, plasma of non schizophrenic individuals: 0.46±0.21 O.D.
